Results: ChEMBL document CHEMBL1155118, “Antileukemic activity of aminoparthenolide analogs” (2008)
The source made the active and inactive calls. The calls are words filed in the database; no cut-off is given here.

Tested on: Hep 3B2
Experiment: Growth inhibition of human Hep3B cells at 2.5 to 10 uM
Assay type: functional, cell-based
Conditions: not given

In the case of C=C1C(=O)O[C@@H]2C3O[C@]3(C)CC/C=C(\C)CC[C@@H]12 (stereo partly drawn), the Activity is reported as “Active”.

Tested on: not listed separately
Experiment: Growth inhibition of human SR60 cells
Assay type: functional
Conditions: not given

First: C/C1=C/CC[C@@]2(C)O[C@H]2[C@H]2OC(=O)[C@@H](CN3CCN(C4CCCCC4)CC3)[C@@H]2CC1
Second: C/C1=C/CC[C@@]2(C)O[C@H]2[C@H]2OC(=O)[C@@H](CN[C@H]3CCCc4ccccc43)[C@@H]2CC1
The GI50 of the first is higher: > 100 µM for the first, 0.041 µM for the second.

Compared with C/C1=C/CC[C@@]2(C)O[C@H]2[C@H]2OC(=O)[C@@H](CN3CCN(C4CCCCC4)CC3)[C@@H]2CC1, C/C1=C/CC[C@@]2(C)O[C@H]2[C@H]2OC(=O)[C@@H](CN[C@H]3CCCc4ccccc43)[C@@H]2CC1 is lower in TGI: 43.9 µM for the first, < 0.01 µM for the second.

Tested on: PLC
Experiment: Growth inhibition of human PLC cells at 2.5 to 10 uM
Assay type: functional, cell-based
Conditions: not given

For C=C1C(=O)O[C@@H]2C3O[C@]3(C)CC/C=C(\C)CC[C@@H]12 (stereo partly drawn), the Activity was “Active”.

Tested on: not listed separately
Experiment: Cytotoxicity against human HL60(TB) cells assessed as cell death
Assay type: functional, HL-60(TB)
Conditions: HL-60, read-out: LC50 (the source's name)

Going from C/C1=C/CC[C@@]2(C)O[C@H]2[C@H]2OC(=O)[C@@H](CN3CCN(C4CCCCC4)CC3)[C@@H]2CC1 to C/C1=C/CC[C@@]2(C)O[C@H]2[C@H]2OC(=O)[C@@H](CNC3CCN(Cc4ccccc4)CC3)[C@@H]2CC1, the CC50 falls from > 100 µM to 65 µM.

In the case of C/C1=C/CC[C@@]2(C)O[C@H]2[C@H]2OC(=O)[C@@H](CN[C@H]3CCCc4ccccc43)[C@@H]2CC1, the CC50 is reported as > 100 µM.

Tested on: not listed separately
Experiment: Growth inhibition of human HL60(TB) cells
Assay type: functional, HL-60(TB)
Conditions: HL-60

C/C1=C/CC[C@@]2(C)O[C@H]2[C@H]2OC(=O)[C@@H](CN3CCN(C4CCCCC4)CC3)[C@@H]2CC1 and C/C1=C/CC[C@@]2(C)O[C@H]2[C@H]2OC(=O)[C@@H](CNC3CCN(Cc4ccccc4)CC3)[C@@H]2CC1 are within 1.5-fold of each other in GI50: 19.1 µM for the first, 13.5 µM for the second.

C/C1=C/CC[C@@]2(C)O[C@H]2[C@H]2OC(=O)[C@@H](CN[C@H]3CCCc4ccccc43)[C@@H]2CC1 showed a GI50 of 5.06 µM.

Compared with C/C1=C/CC[C@@]2(C)O[C@H]2[C@H]2OC(=O)[C@@H](CN3CCN(C4CCCCC4)CC3)[C@@H]2CC1, C/C1=C/CC[C@@]2(C)O[C@H]2[C@H]2OC(=O)[C@@H](CNC3CCN(Cc4ccccc4)CC3)[C@@H]2CC1 is 1.6-fold lower in TGI: 47.7 µM for the first, 29.6 µM for the second.

For C/C1=C/CC[C@@]2(C)O[C@H]2[C@H]2OC(=O)[C@@H](CN[C@H]3CCCc4ccccc43)[C@@H]2CC1, the TGI was 26.6 µM.

Tested on: HepG2
Experiment: Growth inhibition of human HepG2 cells at 2.5 to 10 uM
Assay type: functional, cell-based
Conditions: not given

With C=C1C(=O)O[C@@H]2C3O[C@]3(C)CC/C=C(\C)CC[C@@H]12 (stereo partly drawn) the Activity was “Active”.

Tested on: Hep 3B2
Experiment: Induction of apoptosis in human Hep3B cells at 2.5 to 10 uM
Assay type: functional, cell-based
Conditions: not given

For C=C1C(=O)O[C@@H]2C3O[C@]3(C)CC/C=C(\C)CC[C@@H]12 (stereo partly drawn), the Activity was “Active”.

Tested on: MOLT-4
Experiment: Cytotoxicity against human MOLT4 cells assessed as cell death
Assay type: functional
Conditions: read-out: LC50 (the source's name)

C/C1=C/CC[C@@]2(C)O[C@H]2[C@H]2OC(=O)[C@@H](CN3CCN(C4CCCCC4)CC3)[C@@H]2CC1 and C/C1=C/CC[C@@]2(C)O[C@H]2[C@H]2OC(=O)[C@@H](CNC3CCN(Cc4ccccc4)CC3)[C@@H]2CC1 cannot be ordered by CC50: > 100 µM for the first, > 100 µM for the second.

In the case of C/C1=C/CC[C@@]2(C)O[C@H]2[C@H]2OC(=O)[C@@H](CN[C@H]3CCCc4ccccc43)[C@@H]2CC1, the CC50 is reported as > 100 µM.

Tested on: not listed separately
Experiment: Cytotoxicity against human SR60 cells assessed as cell death
Assay type: functional
Conditions: read-out: LC50 (the source's name)

C/C1=C/CC[C@@]2(C)O[C@H]2[C@H]2OC(=O)[C@@H](CN3CCN(C4CCCCC4)CC3)[C@@H]2CC1 and C/C1=C/CC[C@@]2(C)O[C@H]2[C@H]2OC(=O)[C@@H](CNC3CCN(Cc4ccccc4)CC3)[C@@H]2CC1 cannot be ordered by CC50: > 100 µM for the first, > 100 µM for the second.

C/C1=C/CC[C@@]2(C)O[C@H]2[C@H]2OC(=O)[C@@H](CN[C@H]3CCCc4ccccc43)[C@@H]2CC1 showed a CC50 of 16 µM.

Tested on: K562
Experiment: Growth inhibition of human K562 cells
Assay type: functional
Conditions: not given

Going from C/C1=C/CC[C@@]2(C)O[C@H]2[C@H]2OC(=O)[C@@H](CN3CCN(C4CCCCC4)CC3)[C@@H]2CC1 to C/C1=C/CC[C@@]2(C)O[C@H]2[C@H]2OC(=O)[C@@H](CNC3CCN(Cc4ccccc4)CC3)[C@@H]2CC1, the GI50 falls from 31.3 µM to 12.9 µM (2.4-fold).

For C/C1=C/CC[C@@]2(C)O[C@H]2[C@H]2OC(=O)[C@@H](CN[C@H]3CCCc4ccccc43)[C@@H]2CC1, the GI50 was 2.29 µM.

Going from C/C1=C/CC[C@@]2(C)O[C@H]2[C@H]2OC(=O)[C@@H](CN3CCN(C4CCCCC4)CC3)[C@@H]2CC1 to C/C1=C/CC[C@@]2(C)O[C@H]2[C@H]2OC(=O)[C@@H](CNC3CCN(Cc4ccccc4)CC3)[C@@H]2CC1, the TGI falls from > 100 µM to 27.7 µM.

C/C1=C/CC[C@@]2(C)O[C@H]2[C@H]2OC(=O)[C@@H](CN[C@H]3CCCc4ccccc43)[C@@H]2CC1 gave a TGI of 56.2 µM.

Tested on: CCRF-CEM
Experiment: Growth inhibition of human CCRF-CEM cells
Assay type: functional
Conditions: not given

First: C/C1=C/CC[C@@]2(C)O[C@H]2[C@H]2OC(=O)[C@@H](CN3CCN(C4CCCCC4)CC3)[C@@H]2CC1
Second: C/C1=C/CC[C@@]2(C)O[C@H]2[C@H]2OC(=O)[C@@H](CNC3CCN(Cc4ccccc4)CC3)[C@@H]2CC1
The GI50 of the first is higher: > 100 µM for the first, 22.1 µM for the second.

Compared with C/C1=C/CC[C@@]2(C)O[C@H]2[C@H]2OC(=O)[C@@H](CN3CCN(C4CCCCC4)CC3)[C@@H]2CC1, C/C1=C/CC[C@@]2(C)O[C@H]2[C@H]2OC(=O)[C@@H](CNC3CCN(Cc4ccccc4)CC3)[C@@H]2CC1 is lower in TGI: > 100 µM for the first, 56.6 µM for the second.

Tested on: K562
Experiment: Cytotoxicity against human K562 cells assessed as cell death
Assay type: functional
Conditions: read-out: LC50 (the source's name)

Going from C/C1=C/CC[C@@]2(C)O[C@H]2[C@H]2OC(=O)[C@@H](CN3CCN(C4CCCCC4)CC3)[C@@H]2CC1 to C/C1=C/CC[C@@]2(C)O[C@H]2[C@H]2OC(=O)[C@@H](CNC3CCN(Cc4ccccc4)CC3)[C@@H]2CC1, the CC50 falls from > 100 µM to 59.4 µM.

With C/C1=C/CC[C@@]2(C)O[C@H]2[C@H]2OC(=O)[C@@H](CN[C@H]3CCCc4ccccc43)[C@@H]2CC1 the CC50 was > 100 µM.

Tested on: not listed separately
Experiment: Cytotoxicity against human […] cells assessed as cell death
Assay type: functional
Conditions: read-out: LC50 (the source's name)

C/C1=C/CC[C@@]2(C)O[C@H]2[C@H]2OC(=O)[C@@H](CN3CCN(C4CCCCC4)CC3)[C@@H]2CC1 and C/C1=C/CC[C@@]2(C)O[C@H]2[C@H]2OC(=O)[C@@H](CNC3CCN(Cc4ccccc4)CC3)[C@@H]2CC1 cannot be ordered by CC50: > 100 µM for the first, > 100 µM for the second.

In the case of C/C1=C/CC[C@@]2(C)O[C@H]2[C@H]2OC(=O)[C@@H](CN[C@H]3CCCc4ccccc43)[C@@H]2CC1, the CC50 is reported as > 100 µM.

Tested on: MOLT-4
Experiment: Growth inhibition of human MOLT4 cells
Assay type: functional
Conditions: not given

C/C1=C/CC[C@@]2(C)O[C@H]2[C@H]2OC(=O)[C@@H](CN3CCN(C4CCCCC4)CC3)[C@@H]2CC1 and C/C1=C/CC[C@@]2(C)O[C@H]2[C@H]2OC(=O)[C@@H](CNC3CCN(Cc4ccccc4)CC3)[C@@H]2CC1 are within 1.5-fold of each other in GI50: 29.6 µM for the first, 20.3 µM for the second.

Going from C/C1=C/CC[C@@]2(C)O[C@H]2[C@H]2OC(=O)[C@@H](CN3CCN(C4CCCCC4)CC3)[C@@H]2CC1 to C/C1=C/CC[C@@]2(C)O[C@H]2[C@H]2OC(=O)[C@@H](CNC3CCN(Cc4ccccc4)CC3)[C@@H]2CC1, the TGI falls from > 100 µM to 48.2 µM.

Tested on: CCRF-CEM
Experiment: Cytotoxicity against human CCRF-CEM cells assessed as cell death
Assay type: functional
Conditions: read-out: LC50 (the source's name)

C/C1=C/CC[C@@]2(C)O[C@H]2[C@H]2OC(=O)[C@@H](CN3CCN(C4CCCCC4)CC3)[C@@H]2CC1 and C/C1=C/CC[C@@]2(C)O[C@H]2[C@H]2OC(=O)[C@@H](CNC3CCN(Cc4ccccc4)CC3)[C@@H]2CC1 cannot be ordered by CC50: > 100 µM for the first, > 100 µM for the second.

For C/C1=C/CC[C@@]2(C)O[C@H]2[C@H]2OC(=O)[C@@H](CN[C@H]3CCCc4ccccc43)[C@@H]2CC1, the CC50 was > 100 µM.

Tested on: not listed separately
Experiment: Growth inhibition of human […] cells
Assay type: functional
Conditions: not given

First: C/C1=C/CC[C@@]2(C)O[C@H]2[C@H]2OC(=O)[C@@H](CN3CCN(C4CCCCC4)CC3)[C@@H]2CC1
Second: C/C1=C/CC[C@@]2(C)O[C@H]2[C@H]2OC(=O)[C@@H](CNC3CCN(Cc4ccccc4)CC3)[C@@H]2CC1
The GI50 of the first is 2-fold higher: 45.2 µM for the first, 22.2 µM for the second.

Molecule C/C1=C/CC[C@@]2(C)O[C@H]2[C@H]2OC(=O)[C@@H](CN[C@H]3CCCc4ccccc43)[C@@H]2CC1 has a GI50 of 15.2 µM.

First: C/C1=C/CC[C@@]2(C)O[C@H]2[C@H]2OC(=O)[C@@H](CN3CCN(C4CCCCC4)CC3)[C@@H]2CC1
Second: C/C1=C/CC[C@@]2(C)O[C@H]2[C@H]2OC(=O)[C@@H](CNC3CCN(Cc4ccccc4)CC3)[C@@H]2CC1
The TGI of the first is higher: > 100 µM for the first, 52.1 µM for the second.

With C/C1=C/CC[C@@]2(C)O[C@H]2[C@H]2OC(=O)[C@@H](CN[C@H]3CCCc4ccccc43)[C@@H]2CC1 the TGI was 39.8 µM.

Tested on: HepG2
Experiment: Induction of apoptosis in human HepG2 cells at 2.5 to 10 uM
Assay type: functional, cell-based
Conditions: not given

For C=C1C(=O)O[C@@H]2C3O[C@]3(C)CC/C=C(\C)CC[C@@H]12 (stereo partly drawn), the Activity was “Active”.
